We go through 6 molecules from ChEMBL document CHEMBL5291721, “A preclinical secondary pharmacology resource illuminates target-adverse drug reaction associations of marketed drugs” (Nat Commun, 2023).

The target of assay [1] is T1, Histamine H1 receptor (Homo sapiens, UniProt P35367). The assay is classed as functional, cell-based.
Assay [2] concerns the target T1, Histamine H1 receptor. The class given is functional, cell-based. This is another data set of the same source.
Another assay deals with T2, Androgen receptor (Rattus norvegicus, UniProt P15207).
T2 sequence (P15207 whole entry): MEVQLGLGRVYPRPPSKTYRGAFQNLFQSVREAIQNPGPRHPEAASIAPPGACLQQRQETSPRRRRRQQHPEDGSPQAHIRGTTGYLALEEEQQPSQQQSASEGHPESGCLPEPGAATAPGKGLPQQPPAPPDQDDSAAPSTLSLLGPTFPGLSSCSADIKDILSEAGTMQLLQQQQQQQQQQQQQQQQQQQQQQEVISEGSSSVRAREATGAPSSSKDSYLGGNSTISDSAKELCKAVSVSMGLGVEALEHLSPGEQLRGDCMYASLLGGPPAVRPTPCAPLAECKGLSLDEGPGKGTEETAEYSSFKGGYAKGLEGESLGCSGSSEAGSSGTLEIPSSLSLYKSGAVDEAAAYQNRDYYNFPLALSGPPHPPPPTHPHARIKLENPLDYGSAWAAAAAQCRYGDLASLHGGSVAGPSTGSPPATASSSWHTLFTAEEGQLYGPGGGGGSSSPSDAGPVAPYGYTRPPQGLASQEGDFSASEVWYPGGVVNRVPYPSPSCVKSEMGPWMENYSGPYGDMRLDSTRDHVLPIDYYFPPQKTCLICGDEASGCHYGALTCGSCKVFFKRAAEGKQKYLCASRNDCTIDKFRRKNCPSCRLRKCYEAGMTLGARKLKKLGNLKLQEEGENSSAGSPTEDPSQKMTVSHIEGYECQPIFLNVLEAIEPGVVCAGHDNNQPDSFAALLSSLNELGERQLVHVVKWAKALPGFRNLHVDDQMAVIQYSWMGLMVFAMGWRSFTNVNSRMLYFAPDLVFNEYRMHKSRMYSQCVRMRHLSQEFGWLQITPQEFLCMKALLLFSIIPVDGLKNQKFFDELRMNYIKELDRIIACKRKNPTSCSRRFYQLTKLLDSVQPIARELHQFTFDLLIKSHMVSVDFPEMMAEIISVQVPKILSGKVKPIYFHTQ
The assay is classed as functional.

Another assay has as its target T3, D(4) dopamine receptor (Homo sapiens, UniProt P21917).
T3 sequence (P21917 whole entry): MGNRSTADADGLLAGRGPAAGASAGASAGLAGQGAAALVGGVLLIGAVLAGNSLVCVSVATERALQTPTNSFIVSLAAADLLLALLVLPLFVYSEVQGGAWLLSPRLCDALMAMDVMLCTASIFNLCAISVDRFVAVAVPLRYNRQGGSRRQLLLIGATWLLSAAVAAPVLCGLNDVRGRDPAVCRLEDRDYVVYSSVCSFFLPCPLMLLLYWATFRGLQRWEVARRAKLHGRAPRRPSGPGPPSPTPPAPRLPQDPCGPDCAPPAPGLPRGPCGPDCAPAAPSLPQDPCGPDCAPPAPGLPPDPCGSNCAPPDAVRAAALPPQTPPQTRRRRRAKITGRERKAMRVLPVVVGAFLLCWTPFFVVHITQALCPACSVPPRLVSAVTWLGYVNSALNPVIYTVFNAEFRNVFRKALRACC

Another assay deals with Substance-P receptor (Homo sapiens, UniProt P25103).
Assay [3] has as its target T4, Gastric inhibitory polypeptide receptor (Homo sapiens, UniProt P48546).
T4 sequence (P48546 whole entry): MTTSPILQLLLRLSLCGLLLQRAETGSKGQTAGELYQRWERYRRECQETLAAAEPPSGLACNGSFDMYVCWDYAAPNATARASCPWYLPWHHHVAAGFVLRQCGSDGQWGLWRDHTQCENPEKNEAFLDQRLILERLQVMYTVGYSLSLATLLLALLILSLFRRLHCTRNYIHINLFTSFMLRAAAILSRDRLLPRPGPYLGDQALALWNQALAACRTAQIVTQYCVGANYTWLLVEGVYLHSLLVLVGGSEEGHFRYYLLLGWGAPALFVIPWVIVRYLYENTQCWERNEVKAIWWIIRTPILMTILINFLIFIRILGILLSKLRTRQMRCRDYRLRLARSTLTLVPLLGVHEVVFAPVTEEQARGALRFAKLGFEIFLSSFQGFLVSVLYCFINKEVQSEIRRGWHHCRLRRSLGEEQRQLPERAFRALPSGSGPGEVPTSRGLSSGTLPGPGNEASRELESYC

Assay [4] concerns the target 5-hydroxytryptamine receptor 2A (Homo sapiens, UniProt P28223).
The target of assay [5] is T5, Peroxisome proliferator-activated receptor gamma (Homo sapiens, UniProt P37231).
T5 sequence (P37231 whole entry): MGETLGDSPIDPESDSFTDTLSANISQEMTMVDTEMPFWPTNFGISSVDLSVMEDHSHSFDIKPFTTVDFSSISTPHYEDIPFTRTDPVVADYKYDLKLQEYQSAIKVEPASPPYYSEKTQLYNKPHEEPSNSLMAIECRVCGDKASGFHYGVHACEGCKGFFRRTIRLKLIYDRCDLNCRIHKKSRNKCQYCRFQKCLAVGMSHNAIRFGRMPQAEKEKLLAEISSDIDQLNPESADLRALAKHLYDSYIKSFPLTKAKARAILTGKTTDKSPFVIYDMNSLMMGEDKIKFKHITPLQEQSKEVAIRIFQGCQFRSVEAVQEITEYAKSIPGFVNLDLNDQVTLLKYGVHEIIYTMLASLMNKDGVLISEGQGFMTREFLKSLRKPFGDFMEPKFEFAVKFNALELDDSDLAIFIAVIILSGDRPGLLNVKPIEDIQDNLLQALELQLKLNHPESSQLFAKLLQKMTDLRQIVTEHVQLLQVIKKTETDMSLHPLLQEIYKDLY
The class given is functional.

Assay [6] has as its target T5, Peroxisome proliferator-activated receptor gamma. The class given is functional. The source holds these as a separate data set.
Assay [7] concerns the target Sodium channel protein type 5 subunit alpha (Homo sapiens, UniProt Q14524). The class given is functional, cell-based.

Some results are limits rather than exact numbers.
Also: assay procedure not described here.

T1 sequence (P35367 whole entry): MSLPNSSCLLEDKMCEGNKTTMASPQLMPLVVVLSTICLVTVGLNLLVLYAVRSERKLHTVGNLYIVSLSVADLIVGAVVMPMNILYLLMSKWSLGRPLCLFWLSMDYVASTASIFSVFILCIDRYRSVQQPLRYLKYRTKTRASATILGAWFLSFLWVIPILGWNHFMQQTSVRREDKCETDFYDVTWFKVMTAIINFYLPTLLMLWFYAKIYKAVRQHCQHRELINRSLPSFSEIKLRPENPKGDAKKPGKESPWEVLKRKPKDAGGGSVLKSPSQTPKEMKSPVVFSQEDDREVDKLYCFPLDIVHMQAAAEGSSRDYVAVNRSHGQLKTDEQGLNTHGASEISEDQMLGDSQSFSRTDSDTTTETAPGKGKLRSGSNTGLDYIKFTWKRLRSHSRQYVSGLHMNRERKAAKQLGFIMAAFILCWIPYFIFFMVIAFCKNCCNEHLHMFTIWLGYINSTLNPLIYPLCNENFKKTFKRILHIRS
Chain of 5-hydroxytryptamine receptor 2A (P28223 whole entry): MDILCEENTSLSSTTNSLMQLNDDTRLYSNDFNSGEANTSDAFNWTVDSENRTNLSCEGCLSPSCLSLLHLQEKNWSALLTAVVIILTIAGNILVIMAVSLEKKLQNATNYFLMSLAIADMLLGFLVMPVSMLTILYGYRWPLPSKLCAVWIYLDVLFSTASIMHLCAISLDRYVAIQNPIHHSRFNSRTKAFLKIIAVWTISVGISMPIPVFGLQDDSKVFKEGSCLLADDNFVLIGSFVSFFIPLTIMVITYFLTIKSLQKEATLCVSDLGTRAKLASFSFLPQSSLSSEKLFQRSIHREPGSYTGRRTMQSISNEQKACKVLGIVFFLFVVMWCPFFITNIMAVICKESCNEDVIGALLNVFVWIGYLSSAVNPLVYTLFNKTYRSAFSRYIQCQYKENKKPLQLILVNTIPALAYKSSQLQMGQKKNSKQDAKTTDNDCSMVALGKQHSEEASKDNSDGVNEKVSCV
Chain of Substance-P receptor (P25103 whole entry): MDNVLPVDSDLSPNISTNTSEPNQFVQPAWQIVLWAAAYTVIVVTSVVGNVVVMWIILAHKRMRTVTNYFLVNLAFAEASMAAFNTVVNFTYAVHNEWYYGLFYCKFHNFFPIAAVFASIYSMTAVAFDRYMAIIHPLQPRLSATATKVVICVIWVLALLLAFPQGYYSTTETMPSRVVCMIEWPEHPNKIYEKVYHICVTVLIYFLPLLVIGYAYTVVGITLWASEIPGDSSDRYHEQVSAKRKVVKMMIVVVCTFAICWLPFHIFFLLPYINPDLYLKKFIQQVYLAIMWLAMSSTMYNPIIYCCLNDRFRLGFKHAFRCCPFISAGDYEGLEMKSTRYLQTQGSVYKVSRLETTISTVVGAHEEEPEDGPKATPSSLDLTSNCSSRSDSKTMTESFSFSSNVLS
Chain of Sodium channel protein type 5 subunit alpha (Q14524 whole entry): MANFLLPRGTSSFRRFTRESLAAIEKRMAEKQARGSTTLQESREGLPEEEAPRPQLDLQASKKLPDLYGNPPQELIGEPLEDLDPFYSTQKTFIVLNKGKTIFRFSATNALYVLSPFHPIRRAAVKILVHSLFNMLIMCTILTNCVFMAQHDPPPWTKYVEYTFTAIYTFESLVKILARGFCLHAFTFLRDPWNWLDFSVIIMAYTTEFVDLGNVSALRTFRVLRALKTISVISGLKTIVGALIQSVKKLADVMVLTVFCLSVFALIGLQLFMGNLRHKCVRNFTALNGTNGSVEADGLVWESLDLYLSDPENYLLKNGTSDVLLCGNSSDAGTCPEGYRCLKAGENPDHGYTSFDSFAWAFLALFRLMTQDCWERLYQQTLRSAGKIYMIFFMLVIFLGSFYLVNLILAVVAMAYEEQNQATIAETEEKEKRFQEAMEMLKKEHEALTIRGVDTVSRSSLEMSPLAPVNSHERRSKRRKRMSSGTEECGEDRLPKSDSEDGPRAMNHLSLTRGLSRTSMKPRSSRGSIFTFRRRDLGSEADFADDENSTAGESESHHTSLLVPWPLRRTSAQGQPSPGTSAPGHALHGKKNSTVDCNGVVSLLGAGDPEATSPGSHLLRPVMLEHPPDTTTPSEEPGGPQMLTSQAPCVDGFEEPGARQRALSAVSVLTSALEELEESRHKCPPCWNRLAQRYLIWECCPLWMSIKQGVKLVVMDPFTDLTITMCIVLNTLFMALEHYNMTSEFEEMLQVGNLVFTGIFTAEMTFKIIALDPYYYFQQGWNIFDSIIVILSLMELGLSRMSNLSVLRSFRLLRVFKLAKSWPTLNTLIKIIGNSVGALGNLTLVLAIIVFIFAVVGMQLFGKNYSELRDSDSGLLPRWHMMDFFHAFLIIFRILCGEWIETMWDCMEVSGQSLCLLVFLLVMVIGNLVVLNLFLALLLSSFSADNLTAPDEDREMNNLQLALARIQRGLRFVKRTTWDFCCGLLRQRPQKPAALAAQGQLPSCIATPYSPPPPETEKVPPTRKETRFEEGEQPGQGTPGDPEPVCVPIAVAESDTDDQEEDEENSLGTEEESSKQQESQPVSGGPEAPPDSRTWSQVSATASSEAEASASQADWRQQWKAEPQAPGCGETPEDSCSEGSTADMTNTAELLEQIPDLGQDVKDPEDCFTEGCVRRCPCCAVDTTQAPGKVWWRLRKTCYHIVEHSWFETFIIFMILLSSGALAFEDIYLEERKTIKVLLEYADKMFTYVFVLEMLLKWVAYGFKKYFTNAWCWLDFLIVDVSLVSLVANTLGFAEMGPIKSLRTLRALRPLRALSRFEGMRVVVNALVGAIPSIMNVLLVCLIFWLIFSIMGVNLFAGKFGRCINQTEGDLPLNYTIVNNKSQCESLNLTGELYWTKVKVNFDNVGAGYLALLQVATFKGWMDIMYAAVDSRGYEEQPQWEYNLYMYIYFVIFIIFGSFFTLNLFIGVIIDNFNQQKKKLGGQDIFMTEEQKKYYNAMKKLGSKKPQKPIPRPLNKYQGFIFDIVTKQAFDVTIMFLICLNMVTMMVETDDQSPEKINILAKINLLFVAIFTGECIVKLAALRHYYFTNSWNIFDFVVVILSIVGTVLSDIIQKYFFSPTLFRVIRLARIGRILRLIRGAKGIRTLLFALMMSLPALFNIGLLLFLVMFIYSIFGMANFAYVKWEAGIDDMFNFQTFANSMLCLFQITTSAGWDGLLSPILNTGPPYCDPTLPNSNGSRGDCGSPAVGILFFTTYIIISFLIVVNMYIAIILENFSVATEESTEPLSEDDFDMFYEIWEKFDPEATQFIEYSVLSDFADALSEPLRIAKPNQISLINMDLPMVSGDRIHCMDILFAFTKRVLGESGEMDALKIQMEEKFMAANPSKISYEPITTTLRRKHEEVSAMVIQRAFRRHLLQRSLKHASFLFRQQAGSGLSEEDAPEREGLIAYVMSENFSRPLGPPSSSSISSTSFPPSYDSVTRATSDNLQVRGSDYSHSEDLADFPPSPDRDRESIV

`NS(=O)(=O)c1ccc(N2CCCCS2(=O)=O)cc1`: the AC50 at Histamine H1 receptor [1], on Histamine H1 receptor [2] and on Androgen receptor was above 30 µM each time.
As for `Cc1ccc(-c2ncc(Cl)cc2-c2ccc(S(C)(=O)=O)cc2)cn1` [ETORICOXIB], the AC50 on Histamine H1 receptor [1] is above 30 µM; on D(4) dopamine receptor it was above 10 µM; on Histamine H1 receptor [2] it was above 30 µM; at Substance-P receptor, above 10 µM; in assay [3], above 30 µM; in assay [4] it was above 10 µM.
For `CCC(=O)O[C@H](CC(=O)O)C[N+](C)(C)C` [LEVOCARNITINE PROPIONATE], the half-maximal activity concentration (AC50) (on Histamine H1 receptor [1]; at Histamine H1 receptor [2]; in assay [5]; on Androgen receptor; in assay [6]) was above 30 µM throughout.
Take `O=C(O)c1nn(Cc2ccc(Cl)cc2Cl)c2ccccc12` [LONIDAMINE]: the AC50 (on Histamine H1 receptor [1]; on Histamine H1 receptor [2]; in [5]; at Androgen receptor; in assay [6]) was above 30 µM each time.
In the case of `CC1NCCOC1c1ccccc1` (centres undefined) [PHENMETRAZINE], the AC50 at Histamine H1 receptor [1] is above 30 µM; at Histamine H1 receptor [2], above 30 µM; in [3], above 30 µM; in assay [4], above 10 µM.
As to `CCCCCCCC(=O)CC[C@@H]1[C@@H](C/C=C\CCCC(=O)O)[C@@H](O)C[C@H]1O` [UNOPROSTONE], the AC50 at Histamine H1 receptor [1] is above 30 µM; on Histamine H1 receptor [2] it was above 30 µM; in [5], above 30 µM; in assay [7], above 50 µM; at Androgen receptor, above 30 µM; in assay [6], above 30 µM.
